Literature values as cited in patent US4536518A, “Antidepressant derivatives of cis-4-phenyl-1,2,3,4-tetrahydro-1-naphthalenamine” (priority 1979, dated 1985).

Tests used:
uptake of serotonin = settings: background; cited from earlier work
[1] = test system: synaptosomal norepinephrine uptake; settings: prior art; cited from earlier work

For COCCCC/C(=N\OCCN)c1ccc(C(F)(F)F)cc1 [fluvoxamine], the “serotonin uptake blockade compared to norepinephrine blockade (in words)” value (uptake of serotonin) is given as “selectively block the uptake of serotonin”.

For CN(C)C/C=C(/c1ccc(Br)cc1)c1cccnc1 [zimelidine], the “serotonin uptake blockade compared to norepinephrine blockade (in words)” value (uptake of serotonin) is given as “selectively block the uptake of serotonin”.

For CN[C@@H]1CC[C@@H](c2ccccc2)c2ccccc21 [trans-(1R)-N-methyl-4-phenyl-1,2,3,4-tetrahydro-1-naphthalenamine], the “synaptosomal norepinephrine uptake blocking activity (in words)” value [1] is given as “excellent”.
